Measurements reported in patent US20200121721A1, “METHODS FOR GENETIC MODIFICATION OF HEMATOPOIETIC CELLS” (THE BRIGHAM AND WOMEN'S HOSPITAL, INC., priority 2014, published 2020).
Square brackets hold non-standard residues; d marks the D form. Peptide text beside a SMILES is read from it. Aoe = N[C@@H](CCCCCC(=O)[C@@H]1CO1)C(=O)O

How the values were obtained:
CD34+ cells [1] = assay: Annexin V staining (apoptosis); format: cell-based, human; details: day 3, 5 and 7
Experimental: To investigate whether the lower total nucleated cell number observed in TSA treated culture was possibly due to apoptosis, annexin V staining with TSA, MS275 or DMSO treated cells on day 3, 5 and 7 was performed.

[2] = tested on: primary human CD34+ cells from PBSC; assay: Screening of compounds which increase CD34+CD90+ cells (high throughput flow cytometry); format: cell-based; details: for CD34+CD90+ population compared with that of DMSO treated CD34+ cells: PBSC CD34+ cells, 4 or 5-day culture with cytokines (CC100), FIG. 1A; for absolute number of CD34+CD90+ cells: screen, compared with other compounds, FIG. 1B
Source text: Cells were stained with antihuman CD34 monoclonal antibody conjugated to phycoerythrin (PE), or allophycocyanin (APC), antihuman CD90 conjugated fluorescein isothiocyanate (FITC) or APC, CD38 APC, CD 3 tri-color (TC), CD19 TC, CD11b TC, CD41 TC, CD45 FITC and mouse CD45 APC. The flow cytometry data were collected using FACS Calibur flow cytometer (Becton Dickinson, San Jose, Calif., USA) or and analysed by using FLOWJO software.
To identify or confirm the molecules that expand CD34+CD90+ cells, the Inventors developed an assay using primary human CD34+ cells from PBSC and evaluated CD34 and CD90 expression by high throughput flow cytometry after a 4 or 5-day culture.
Using this assay, the Inventors screened FDA approved 446 compounds and 14 small molecule drugs including a panel of epigenetic modifiers as shown in Table 2. Human PBSC CD34+ cells were purified and cultured in IMDM with fetal bovine serum (FBS; GIBCO; final concentration 30%) and CC100 (a CD34 maintaining culture medium containing stem cell factor; SCF, Flt3 ligand; FL, Interleukin-3; IL3 and Interleukin-6; IL6; Stem Cell Technologies).

PBMC CD34+ cells [3] = assay: In vitro colony formation in methylcellulose (CFU assay); format: cell-based, human; details: eight days after plating
Experimental: Tubes of MethoCult® H4434 (Stem Cell Technologies) medium were thawed overnight in a 4° C. refrigerator. The next morning CB CD34+ cells were prepared at 10× the final concentration required. Cell suspensions of 2000 cells per 0.3 mL were prepared. Cells were added to 3 mL of MethoCult® medium for duplicate cultures. A 16 gauge blunt-end needle attached to a 3 cc syringe was used to dispense the cells and MethoCult® medium into culture dishes. 1.1 mL of cells was dispensed per 35 mm dish. The two dishes were placed into a 100 mm petri dish and a third, uncovered 35 mm dish containing 3 mL of sterile water was also added. All 3 dishes were then covered within the 100 mm petri dish. […] […] CFUs were counted under the microscopy.
Since the CD34+CD90+ cells are a CD34+ subpopulation with severe combined immunodeficient (SCID) repopulating activity (SRA), The Inventors next test whether the preferential expansion of these cells mediated by TSA or MS-275 treatment can lead to increased hematopoietic differentiation/proliferation in vitro and SRA engraftment in vivo. The Inventors first treated PBMC CD34+ cells with TSA or MS-275 treatments followed by assessment of in vitro colony formation in methylcellulose. […] To quantify large and small colonies, The Inventors classified as large as >50 and small as 5-50 clusters, respectively.

PBSC CD34+ cells [4] = assay: Ex vivo culture of PBSC CD34+ cells with TSA or MS275 (CD34+CD90+ expansion, cell growth); format: cell-based, human; details: for expression of CD34+CD90+ cells after one day exposure: 24 hours exposure then washed or not washed, evaluated on day 3 and day 5; for growth rate compared with DMSO / cell growth (cell number) of CD34+ cells: FIG. 3A; for cell growth (cell number) of CD34+ cells: mean±SDV of three experiments; for absolute number of CD34+CD90+ cells: from day 5 to day 7
CD34+ cells [5] = assay: CFSE labeling to assess cell division; format: cell-based, human; details: by day 5, CFSE
Experimental: Primary CD34+ cells were labeled for 10 minutes at 37° C. with 0.5 uM of carboxyfluorescein diacetate succinimidyl ester (CSFE; Invirtogen, NY, USA) in PBS. After […] of culture, cell were labeled with CD34 PE and analyzed for a progressive decline of fluoredcence intensity of CSFE using FACSCalibur flow cytometer.
To assess whether the lower total nucleated cell number observed in TSA treated culture was due to a delay in differentiation or proliferation, the Inventors performed a cell-division-monitoring dye carboxyfluorescein succinimidyl ester (CFSE) assay, a fluorescent cytoplasmic dye which allowed counting of cell divisions of CD34+ cells after in vitro culture. While 66.0% of non-treated CD34+ cells divided at least more than 4 times by day 5, only 9.02% of TSA treated cells went through a similar number of cell divisions (FIG. 3B).
The Inventors then investigated whether TSA treatment led to increased CD34+CD90+ cells through self-renewal proliferation as assessed by surface markers. Using CD34+CD90− cells as a control population, the cell division profile of CD34+CD90+ cells upon TSA treatment was analyzed using the CSFE assay after 5 and 7 days of in vitro culture.

CB CD34+ cells = assay: Engraftment of cultured CD34+ cells in NSG mice (SCID repopulating activity); format: in vivo
Experimental: NSG (NOD.Cg-Prkdcscid Il2rgtm1Wjl/SzJ, The Jackson Laboratory, ME, USA) mice were bred and maintained in the Children's Hospital Boston animal facility. All animal work has been approved by and done according to the guidelines of the IACUC under protocol 10-101832. The CB CD34+ cells treated with wild type-peptide and scrambled-peptide were injected intravenously via the tail vein into sub-lethally irradiated (220 rads) 8 to 16-week-old NSG mice. Engraftment was performed within 24 h after irradiation. Peripheral blood (PB) chimerism was monitored at 2 and 8 weeks post transplantation. Bone marrow (BM) chimerism was monitored at 8 weeks post transplantation. […] The percentage of human CD45+ cells was calculated as follows: % human CD45+ cells=No. human CD45+ cells/(No. human CD45+ cells + No. mouse CD45+ cells)×100. […]
Based on in vitro phenotypic analysis described above, The Inventors transplanted cells after culture for 5 or7 days with cytokine alone or TSA into NSG mice to evaluate immunodeficient (SCID) repopulating activity (SRA) as a measure of enhanced HSPC function. Because Vanheuden et al, reported that severe combined immunodeficient (SCID) repopulating activity (rSRA) is mediated by CD34+CD38CD90+CD45RA− cells after in vitro culture, the Inventors first analyzed SRA activity in peripheral blood (PB) 2 weeks after transplant.

PBSC CD34+ cells [6] = assay: Real-time PCR of stem cell related genes; format: cell-based, human; details: 3 days of culture, relative to DMSO, p<0.05
Source text: Inventors prepared RNA from cells treated with wild-type or scrambled peptide using TRIzol (Invitrogen). The Inventors synthesized cDNA using iScript cDNA Synthesis kit (Bio-Rad, CA, USA). To quantitate the level of mRNAs expression, The Inventors carried out polymerase chain reaction (PCR) amplification using iScript one-step RT-PCR kit with SYBER Green (Bio-Rad) and the PCR products were detected by use of SYBR green technology (ABI, Foster City, Calif., USA). GAPDH was used as an endogenous control. All samples were run in duplicate. Thermal cycler conditions were 50° C. for 2 minutes, 95° C. for 10 minutes, and 45 cycles of 95° C. for 0.30 minutes and 60° C. for 1 minute. Results were obtained as threshold cycle (Ct) values and normalized gene expression with GAPDH. Data were analyzed based on 2-ΔΔCT method using CFX Manager software (Bio-Rad). For QPCR primers see Table 1.
Next, to investigate the molecular mechanism responsible for the expansion of functional HSCs and HSPC observed following TSA treatment, the Inventors examined expression levels of a number of genes involved in self-renewal or differentiation of stem cells using realtime PCR.

[7] = tested on: cord blood CD34+CD90+ cells; details: cited from earlier work
PBMC CD34+ cells [8] = assay: Lentiviral transduction (GFP vector) of CD34+ cells; format: cell-based, human
Experimental: Lentiviral particles were generated by transient co-transfection of 293T cells with the lentiviral vectors pLL3.7, pHR'8.9ΔVPR and pCMV-VSVG. CD34+ cells were infected in medium containing lentiviral particles and 8 μg/ml protamin. The culture medium was then removed and replaced with fresh media.
Next, the Inventors investigated whether expansion of CD34+CD90+ cells by TSA could affect the lentiviral transduction efficacy. A transfer vector encoding green fluorescent protein (GFP) was used for evaluation of lentiviral transduction. PBMC CD34+ cells were cultured with or without TSA for 3 days, followed by lentiviral transduction with protamin twice for 48 hours (FIG. 15A).

CD34+ cells [9] = assay: UM171 effect on division of CD34+ cells (total cell numbers); format: cell-based; details: 50 nM to 500 nM (1 uM); commercial and synthesized UM171

Nc1ccccc1NC(=O)c1ccc(CNC(=O)OCc2cccnc2)cc1 [MS275]
apoptotic cells (annexin V) (CD34+ cells [1]; 500 nM): did not significantly increased apoptotic cells | CD34+CD90+ population compared with that of DMSO treated CD34+ cells [2]: expanded CD34+CD90+ population | absolute number of CD34+CD90+ cells [2]: expanded the absolute number of CD34+CD90+ cells more than that of other compounds | size of colonies derived from CFU-GM compared with control group (PBMC CD34+ cells [3]): much larger than control group | expression of CD34+CD90+ cells after one day exposure (PBSC CD34+ cells [4]): limit the expression of CD34+CD90+ cells | growth rate compared with DMSO (PBSC CD34+ cells [4]): about 2 times lower | cell growth (cell number) of CD34+ cells (PBSC CD34+ cells [4]): 16.7×10^4±1.06 | absolute number of CD34+CD90+ cells (PBSC CD34+ cells [4]): increased

COc1cc2c(NC3CCN(C(C)C)CC3)nc(C3CCCCC3)nc2cc1OCCCN1CCCC1 [UNC0638]
CD34+CD90+ population compared with that of DMSO treated CD34+ cells [2]: expanded CD34+CD90+ population

O=C(CCCCCCC(=O)Nc1ccccc1)NO [SAHA]
CD34+CD90+ population compared with that of DMSO treated CD34+ cells [2]: expanded CD34+CD90+ population

CC(/C=C/C(=O)NO)=C\[C@@H](C)C(=O)c1ccc(N(C)C)cc1 [TSA, trichostatin]
apoptotic cells (annexin V) (CD34+ cells [1]; 50 nM): did not significantly increased apoptotic cells | CD34+CD90+ population compared with that of DMSO treated CD34+ cells [2]: expanded CD34+CD90+ population | absolute number of CD34+CD90+ cells [2]: expanded the absolute number of CD34+CD90+ cells more than that of other compounds | CD34+CD90+ cells less divided than CD34+CD90− cells (CD34+ cells [5]; TSA treatment): 31.4% | CD34+CD90+ cells more divided than CD34+CD90− cells (CD34+ cells [5]; TSA treatment): about 66.7% | CD34+ cells divided at least more than 4 times (CD34+ cells [5]): 9.02% | size of colonies derived from CFU-GM compared with control group (PBMC CD34+ cells [3]): much larger than control group | proportion of large (>50 clusters) and small (5-50 clusters) colonies (PBMC CD34+ cells [3]; FIG. 13B): gave mainly rise to large colonies | percentage of human CD45+ engraftment in peripheral blood (CB CD34+ cells; 2 weeks after transplant, day 5 progeny of 2×10^4 CB CD34+ cells, vs cytokine alone): higher percentage of human CD45+ engraftment | marrow-repopulating potential (human CD45+ cell engraftment in PB and BM) (CB CD34+ cells; 8 weeks after transplantation): enhances the marrow-repopulating potential | levels of transcripts for GATA1, GATA2, HOXA9, HOXB4, PTEN, SALL4, p53, TPO and CD34 genes (PBSC CD34+ cells [6]): higher levels of transcripts | expansion of CD34+CD90+ cells (reported) [7]: reported to expand CD34+CD90+ cells | expression of CD34+CD90+ cells after one day exposure (PBSC CD34+ cells [4]): limit the expression of CD34+CD90+ cells | growth rate compared with DMSO (PBSC CD34+ cells [4]): about 2 times lower | cell growth (cell number) of CD34+ cells (PBSC CD34+ cells [4]): 28.3×10^4±0.49 | expansion of CD34+CD90+ cells compared with DMSO treated cells (PBSC CD34+ cells [4]; day 3, day 5 and day 7, p<0.05): preferential expansion of CD34+CD90+ cells | absolute number of CD34+CD90+ cells (PBSC CD34+ cells [4]): increased | lentiviral transduction for CD34+ cells ex vivo (PBMC CD34+ cells [8]): promoted the lentiviral transduction | percentage of CD34+GFP+ cells (PBMC CD34+ cells [8]; 3 days culture with TSA, then lentiviral transduction, vs cells without treatment): higher than that of cells without treatment

O=C1N[C@@H](Cc2ccccc2)C(=O)N2CCC[C@@H]2C(=O)N[C@@H](CCCCCC(=O)[C@@H]2CO2)C(=O)N[C@H]1Cc1ccccc1 [trapoxin] (cyclo(FF[dP][Aoe]))
expansion of CD34+CD90+ cells (reported) [7]: reported to expand CD34+CD90+ cells

Cn1nnc(-c2ccc3c(c2)[nH]c2nc(Cc4ccccc4)nc(NC4CCC(N)CC4)c23)n1 (stereo not drawn) [UM171]
total cell numbers (CD34+ cells [9]): very similar

CC(C)n1cnc2c(NCCc3ccc(O)cc3)nc(-c3csc4ccccc34)nc21 [SR1]
CD34+CD90+ population compared with that of DMSO treated CD34+ cells [2]: expanded CD34+CD90+ population

CCCC(CCC)C(=O)O [Valproic acid]
expansion of CD34+CD90+ cells (reported) [7]: reported to expand CD34+CD90+ cells
